In PMC7575509, “Phase I study of DFP-11207, a novel oral fluoropyrimidine with reasonable AUC and low Cmax and improved tolerability, in patients with solid tumors” (Investigational New Drugs, 2020):
Entries after “also recorded” stand apart in the source; their conditions may differ.

Key:
[1] = Plasma pharmacokinetics, Phase I Study (LC-MS/MS of DFP-11207 metabolites); details: for AUC(0-t) / Cmax / Tmax / concentration at 2 day (Cycle 1): human, po
[2] = Urine pharmacokinetics, Phase I Study; type: in vivo, human (patients); details: Cycle 1, 0–48 hours after the DFP-11207 dose of 330 mg/m^2/day
[3] = Plasma pharmacokinetics, Food Effect Study (fed vs fasted); details: for detectability in plasma during fed and fasted dosing: 6 patients
[4] = ref 18 (capecitabine), 19 (UFT), 20 (S-1); cited from earlier work

SMILES	AUC(0-t) ([1]; plasma, 330 mg/m2) [ng·h/mL]	Cmax ([1]; plasma, 330 mg/m2) [ng/mL]	Tmax ([1]; plasma, 330 mg/m2) [h]	concentration at 2 day (Cycle 1) ([1]; plasma, 330 mg/m^2/day) [ng/mL]	AUC(0-t) ([1]; plasma, 440 mg/m2) [ng·h/mL]	Cmax ([1]; plasma, 440 mg/m2) [ng/mL]	Tmax ([1]; plasma, 440 mg/m2) [h]	concentration at 2 day (Cycle 1) ([1]; plasma, 440 mg/m^2/day) [ng/mL]	urinary excretion [2] [%]	detectability in plasma during fed and fasted dosing ([3]; DFP-11207 300 mg twice daily)	primary dose-limiting toxicity [4]	5-FU Cmax at steady state ([1]; DFP-11207 330 mg/m^2/day orally every 12 hours) [ng/mL]	blood concentrations maintained throughout the dose cycle ([1]; oral DFP-11207 at 330 and 440 mg/m^2/day)	AUClast, Mean (SD) ([1]; plasma, Day 1, oral DFP-11207 440 mg/m^2)	difference in plasma levels (Cmax or AUClast) between fasted and fed conditions ([3]; in vivo)	difference in plasma levels (Cmax or AUClast) between fasted and fed conditions ([3]; DFP-11207 300 mg twice daily, patients serving as their own controls)
CCOCn1cc(F)c(=O)[nH]c1=O [EM-FU, 1-ethoxymethyl-5-fluorouracil]	39900	1310	48	559 to 1380	49400	1400	24	948 to 1770	0.71	detectable in plasma at all time points						
CCCCCOC(=O)Nc1nc(=O)n([C@@H]2O[C@H](C)[C@@H](O)[C@H]2O)cc1F [capecitabine]											hand-foot syndrome					
O=c1[nH]cc(F)c(=O)[nH]1 [5-FU, 5-fluorouracil, reference compound]	220	9.65	24	4.01 to 25.5		8.75	12	3.39 to 13	0.12			< 25	approximately 20 ng/mL	3; 311 (214) ng·h/mL	no influence; also recorded: no clear differences	
Oc1cc(O)c(Cl)cn1 [CDHP, 5-chloro-2,4-dihydroxypyridine]	2410	90.4	24		2810	93.6	26		1.98	detectable in plasma at all time points						
O=C(O)c1cc(O)nc(O)c1 [CTA, citrazinic acid]	254	9.81	8		388	9.72	4		0.07							no clear differences
